Patent publication US20120329832A1, “Novel Insect-Repellent Coumarin Derivatives, Syntheses, and Methods of Use” (priority 2011, published 2012)
Read-outs that look alike come from different tables or passages of the source.

Tests used:
drosophila = experiment: Tests in vivo on drosophila: two-tube repellency test, Repulsive Index; parameters: key to RI against drosophila (FIG. 1) / RI (FIG. 2 and 3): RI = (N1−N2)/(N1+N2); N1 solvent tube, N2 compound tube; conditions: for RI against drosophila (FIG. 1): concentration not given; for repellent or attractant activity against drosophila, in words: in vivo; for repellent activity compared with DEET, in words: 1% concentration in EtOH
Experimental: Description of Test system. To evaluate repellent efficacy, compounds were added to test chambers, each containing 40 drosophila. The test was performed in 3 phases: 1) fast (flies aspirated to test tubes); 2) implementation of the system (addition of filter paper, addition of solvent containing test compound); and 3) counting of the flies (after 22 hours exposure to test compound). The number of drosophila in each tube were counted: number of flies in the “filter paper+Solvent” tube was designated N1 and the number of flies in the “filter paper impregnated with test compound” was designated N2.
The Repulsive Index (R1) is given by the following equation: (N1−N2)/(N1+N2).

acetylcholinesterase = conditions: insects and mammals; cited from earlier work
mosquitoes = conditions: absence of body odor attractants such as 1-octen-3-ol, lactic acid, or carbon dioxide; cited from earlier work
[1] = reported by US EPA; cited from earlier work
Culex = conditions: cited from earlier work
Aedes mosquitoes = conditions: cited from earlier work
[2] = share of drosophila in product tube versus EtOH tube after 22 hours, product concentration not given
[3] = share of drosophila in solvent tube (filter paper + EtOH) after 22 hours, product concentration not given
[4] = 10% solution of product, share of drosophila in EtOH tube
[5] = 10% solution of product, share of drosophila in product tube versus EtOH tube
[6] = 20% solution of product, share of drosophila in EtOH tube
[7] = 20% solution of product, share of drosophila in product tube versus EtOH tube
[8] = 5% solution of product, share of drosophila in EtOH tube
[9] = 5% solution of product, share of drosophila in product tube versus EtOH tube
[10] = share of drosophila in solvent tube (AcOEt), product concentration not given

| Structure (SMILES) | In vivo tests: Tube EtOH (drosophila; [4]) [%] | In vivo tests: Tube product (drosophila; [5]) [%] | In vivo tests: Tube EtOH (drosophila; [6]) [%] | In vivo tests: Tube product (drosophila; [7]) [%] | further results |
| --- | --- | --- | --- | --- | --- |
| CCCCCOc1cc(=O)oc2ccccc12 [EV06136] |  |  |  |  | In vivo tests: Tube AcOEt (drosophila; 20% solution of product, share of drosophila in AcOEt tube): 88.56%; In vivo tests: Tube product (drosophila; 20% solution of product, share of drosophila in product tube versus AcOEt tube): 11.44% |
| CCN(CC)C(=O)c1cccc(C)c1 [DEET, N,N-Diethyl-meta-toluamide] |  |  |  |  | activity on acetylcholinesterase, in words (acetylcholinesterase): inhibit the activity; repellent activity in behavioral test, in words (mosquitoes): strong repellent activity; RI against drosophila (FIG. 1) (drosophila): > 0.9; deaths among the potential DEET-associated seizure cases [1]: 4 deaths |
| CC(=O)OC(C)C(=O)Oc1ccc2ccc(=O)oc2c1 (centres unmarked) [EV04122] |  |  |  |  | In vivo tests: Tube product (drosophila; [2]): 68.18%; In vivo tests: Tube EtOH (drosophila; [3]): 31.82% |
| CCC(CC)Oc1ccc2ccc(=O)oc2c1 [EV04114] | 88.00 | 12.00 | 93.09 | 6.91 | repellent or attractant activity against drosophila, in words (drosophila): significant repellent activity |
| CCCCCOc1ccc2ccc(=O)oc2c1 [EV06026] | 87.53 | 12.47 | 94.12 | 5.88 |  |
| CCC(C)OC(=O)N1CCCCC1CCO (centres unmarked) [picaridine, hydroxyethyl isobutyl piperidine carboxylate] |  |  |  |  | RI against drosophila (FIG. 1) (drosophila): > 0.6; protection time against Culex (Culex; 7% solution): about 2.5 hours; protection time against Culex (Culex; 15% solution): 4.8 h; protection against Aedes mosquitoes (Aedes mosquitoes; 7% solution): little or no protection; protection time against Aedes (Aedes mosquitoes; 15% solution): about one |
| CC(C)C(C)Oc1ccc2ccc(=O)oc2c1 (centres unmarked) [EV06028] | 86.74 | 13.26 | 94.21 | 5.79 |  |
| CC[C@H](C)OC(=O)c1ccc2ccc(=O)oc2c1 [EV05178] | 54.77 | 45.23 | 85.50 | 14.50 | RI (FIG. 2 and 3) (drosophila; 10% solution in EtOH): ~0.07; RI (FIG. 2 and 3) (drosophila; 20% solution in EtOH): ~0.7 |
| CC(C)(C)COc1ccc2ccc(=O)oc2c1 [EV06162] |  |  |  |  | repellent or attractant activity against drosophila, in words (drosophila): strong drosophila attractant |
| CCCCCCCCOc1ccc2ccc(=O)oc2c1 [EV06144] | 90.00 | 10.00 | 91.73 | 8.37 | In vivo tests: Tube EtOH (drosophila; [8]): 91.35%; In vivo tests: Tube product (drosophila; [9]): 8.65% |
| CCCC(C)Oc1cc(=O)oc2ccccc12 (centres unmarked) [EV06098] | 79.29 | 20.71 | 97.57 | 2.43 |  |
| CCC(C)NC(=O)COc1ccc2ccc(=O)oc2c1 (centres unmarked) [EV06178] |  |  |  |  | RI against drosophila (FIG. 1) (drosophila): ~−0.2; repellent or attractant activity against drosophila, in words (drosophila): appeared to provide attractant activity |
| CCCCCCOc1ccc2ccc(=O)oc2c1 [EV06110] | 91.09 | 8.91 | 89.06 | 10.94 |  |
| CCC(C)Oc1ccc2ccc(=O)oc2c1 (centres unmarked) [EV04058] | 91.22 | 8.78 | 88.02 | 11.98 |  |
| CCCCN(CCCC)C(=O)COc1ccc2ccc(=O)oc2c1 [EV05120] | 90.36 | 9.64 | 85.58 | 14.42 | RI (FIG. 2 and 3) (drosophila; 10% solution in EtOH): ~0.8; RI (FIG. 2 and 3) (drosophila; 20% solution in EtOH): ~0.7; repellent or attractant activity against drosophila, in words (drosophila): acted as repellents |
| CCCCN(CCCC)C(=O)c1ccc2ccc(=O)oc2c1 [EV05138] | 82.54 | 17.46 | 86.27 | 13.73 |  |
| CCC(CC)Oc1cc(=O)oc2ccccc12 [EV06062] | 93.10 | 6.90 | 98.26 | 1.74 | repellent activity compared with DEET, in words (drosophila): remains as good a repellent as DEET; In vivo tests: Tube EtOH (drosophila; 1% solution of product, share of drosophila in EtOH tube): 87.08%; In vivo tests: Tube product (drosophila; 1% solution of product, share of drosophila in product tube versus EtOH tube): 12.92%; In vivo tests: Tube EtOH (drosophila; [8]): 96.08%; In vivo tests: Tube product (drosophila; [9]): 3.20%; Repulsive Index (RI) (drosophila; EtOH, fourth Tested Concentration, 0.056 mmol/mL (1% solution)): 0.742 |

| Structure (SMILES) | In vivo tests: Tube EtOH (drosophila; [4]) [%] | In vivo tests: Tube product (drosophila; [5]) [%] | In vivo tests: Tube EtOH (drosophila; [6]) [%] | In vivo tests: Tube product (drosophila; [7]) [%] | further results |
| --- | --- | --- | --- | --- | --- |
| CCC(C)NC(=O)c1ccc2ccc(=O)oc2c1 (centres unmarked) [EV06166] |  |  |  |  | RI against drosophila (FIG. 1) (drosophila): ~0.2 |
| CC(C)CCOc1cc(=O)oc2ccccc12 [EV06140] | 90.10 | 9.90 | 91.92 | 8.08 |  |
| CCC(C)Oc1cc(=O)oc2ccccc12 (centres unmarked) [EV06088] | 90.50 | 9.50 | 91.04 | 8.96 |  |
| CCCCCCCCN(CCCCCCCC)C(=O)COc1ccc2ccc(=O)oc2c1 [EV06092] |  |  |  |  | In vivo tests: Tube product (drosophila; [2]): 32.34%; In vivo tests: Tube EtOH (drosophila; [3]): 67.66% |
| C=CCOc1ccc2ccc(=O)oc2c1 [EV04032] |  |  |  |  | In vivo tests: Tube AcOEt (drosophila; [10]): 62.25% |
| CCCC(C)Oc1ccc2oc(=O)ccc2c1 (centres unmarked) [EV06154] | 93.03 | 6.97 | 96.57 | 3.43 | repellent activity compared with DEET, in words (drosophila): performed effectively as a repellent |
| CCC(CC)Oc1ccc2oc(=O)ccc2c1 [EV06018] |  |  |  |  | In vivo tests: Tube AcOEt (drosophila; [10]): 81.07% |
| CCCC(C)Oc1ccc2ccc(=O)oc2c1 (centres unmarked) [EV06044] | 83.91 | 16.08 | 96.12 | 3.82 | repellent or attractant activity against drosophila, in words (drosophila): significant repellent activity |
| CCCCCCCCN(CCCCCCCC)C(=O)c1ccc2ccc(=O)oc2c1 [EV06096] | 67.84 | 32.16 | 95.33 | 4.67 | repellent or attractant activity against drosophila, in words (drosophila): acted as repellents |
| CCC(C)COc1ccc2ccc(=O)oc2c1 (centres unmarked) [EV04094] | 89.63 | 10.37 | 86.47 | 13.53 |  |
| CCC(C)Oc1ccc2ccc(=O)oc2c1 (centres unmarked) [EV04070] | 92.79 | 7.21 | 91.34 | 8.66 | repellent or attractant activity against drosophila, in words (drosophila): significant repellent activity |
| CC(C)C(C)Oc1cc(=O)oc2ccccc12 (centres unmarked) [EV06128] |  |  | 66.83 | 33.17 |  |
| C=C(C)C1CC=C(COc2ccc3ccc(=O)oc3c2)CC1 (centres unmarked) [EV04090] |  |  |  |  | In vivo tests: Tube CH2Cl2 (drosophila; share of drosophila in solvent tube (CH2Cl2), product concentration not given): 70.20%; Repulsive Index (RI) (drosophila; solvent CH2Cl2 according to Table 2, Tested Concentration 0.666 mmol/mL): 0.404 |
| CCC(C)Oc1ccc2oc(=O)ccc2c1 (centres unmarked) [EV06068] | 90.91 | 9.09 | 93.85 | 6.15 |  |
| CC(C)CCOc1ccc2ccc(=O)oc2c1 [EV06036] | 86.10 | 13.90 | 86.63 | 13.73 |  |
| CCCCCCC(C)Oc1ccc2ccc(=O)oc2c1 (centres unmarked) [EV06148] | 93.66 | 6.34 | 96.00 | 4.00 | repellent activity compared with DEET, in words (drosophila): remained as effective a repellent as DEET |
